# Data: patent US6407088B1 (priority 2000, dated 2002)
# Where “and” joins values, the source holds several entries; their conditions need not be identical. Equal values may be shown once. Entries after “also recorded” stand apart in the source; their conditions may differ. Read-outs that look alike come from different tables or passages of the source. Marks after values point to notes of the source that are not given here.
# What was measured:
# [1] = test system: Kunming mice; details: mouse, in vivo
# [2] = test system: Shanghai mice; details: mouse, in vivo
# [3] = test system: mouse's marrow cells; details: in vivo
# [4] = test system: monkeys; details: rhesus monkey, in vivo
# [5] = test system: rats; details: rat, in vivo
# [6] = test system: monkeys; details: rhesus monkey, in vivo; remark: listed apart in the source
# [7] = test system: mice; details: mouse, in vivo
# [8] = test system: Wistar rats; assay: Formalin induced inflammation test in rats; details: rat, in vivo
# [9] = test system: rats; assay: Tail-flick test in rats; details: rat, in vivo
# [10] = test system: Chinese hamster lung (CHL) cells; format: cell-based; details: for Chromosomal aberration rate (%): MMC 0.25 μg/mL, no metabolic activation, P<0.01
# Method: The Chinese hamster lung (CHL) cells were exposed to tetrodotoxin at the concentrations of 5.0, 10.0, and 20.0 μg/mL for 24 or 48 hours in the absence of Sg activation and for 6 hours in the presence of S9 activation.
# [11] = test system: Hartley guinea pigs
# [12] = test system: Salmonella TA97; details: Dexon 50.0, −S9; control 138 ± 18
# [13] = test system: Salmonella TA102
# [14] = test system: Salmonella TA98; details: Dexon 50.0, −S9; control 36 ± 5
# [15] = test system: Salmonella TA100; details: Dexon 50.0, −S9; control 130 ± 11
# [16] = test system: Kunming mice; assay: Acetic acid-induced writhing test in mice; format: in vivo
# [17] = test system: mice; assay: Analgesic time-effect relation in acetic acid-induced writhing test in mice; format: in vivo; details: for IR, inhibition rate / AWI, average writhing incidence: aspirin ig
# [18] = test system: Kunming mice; details: mouse, in vivo; remark: listed apart in the source
# [19] = test system: Kunming mice; details: mouse, in vivo; remark: listed apart in the source
# [20] = test system: 2% red blood cell (RBC) suspension; format: cell-based, rabbit
# [21] = target: TTX-resistant sodium channel (TTX-R) (Rattus norvegicus, UniProt Q62968); details: cited from earlier work
# [22] = test system: Rhesus monkeys; details: rhesus monkey, in vivo
# [23] = target: hPN3 (Homo sapiens, UniProt Q9Y5Y9); details: cited from earlier work
# [24] = test system: late term cancer patients; details: human, in vivo
# [25] = test system: rabbits; design: species or system New Zealand white rabbits; details: rabbit, in vivo, iv
# [26] = test system: TTX-sensitive sodium channel (TTX-S); details: cited from earlier work
# [27] = test system: anesthetized dogs; details: dog, in vivo
# [28] = test system: rabbits' quadriceps femoris muscles
# [29] = Aspirin 100 mg/kg, Table 5 (im)
# [30] = Aspirin 200 mg/kg, Table 5 (im)
# [31] = Aspirin 300 mg/kg, Table 5 (im)
# [32] = Aspirin 400 mg/kg, Table 5 (im)
# [33] = quadriceps femoris, 1 mL im, 48 hours
# Sequence of TTX-resistant sodium channel (TTX-R) (Q62968 whole entry, looked up): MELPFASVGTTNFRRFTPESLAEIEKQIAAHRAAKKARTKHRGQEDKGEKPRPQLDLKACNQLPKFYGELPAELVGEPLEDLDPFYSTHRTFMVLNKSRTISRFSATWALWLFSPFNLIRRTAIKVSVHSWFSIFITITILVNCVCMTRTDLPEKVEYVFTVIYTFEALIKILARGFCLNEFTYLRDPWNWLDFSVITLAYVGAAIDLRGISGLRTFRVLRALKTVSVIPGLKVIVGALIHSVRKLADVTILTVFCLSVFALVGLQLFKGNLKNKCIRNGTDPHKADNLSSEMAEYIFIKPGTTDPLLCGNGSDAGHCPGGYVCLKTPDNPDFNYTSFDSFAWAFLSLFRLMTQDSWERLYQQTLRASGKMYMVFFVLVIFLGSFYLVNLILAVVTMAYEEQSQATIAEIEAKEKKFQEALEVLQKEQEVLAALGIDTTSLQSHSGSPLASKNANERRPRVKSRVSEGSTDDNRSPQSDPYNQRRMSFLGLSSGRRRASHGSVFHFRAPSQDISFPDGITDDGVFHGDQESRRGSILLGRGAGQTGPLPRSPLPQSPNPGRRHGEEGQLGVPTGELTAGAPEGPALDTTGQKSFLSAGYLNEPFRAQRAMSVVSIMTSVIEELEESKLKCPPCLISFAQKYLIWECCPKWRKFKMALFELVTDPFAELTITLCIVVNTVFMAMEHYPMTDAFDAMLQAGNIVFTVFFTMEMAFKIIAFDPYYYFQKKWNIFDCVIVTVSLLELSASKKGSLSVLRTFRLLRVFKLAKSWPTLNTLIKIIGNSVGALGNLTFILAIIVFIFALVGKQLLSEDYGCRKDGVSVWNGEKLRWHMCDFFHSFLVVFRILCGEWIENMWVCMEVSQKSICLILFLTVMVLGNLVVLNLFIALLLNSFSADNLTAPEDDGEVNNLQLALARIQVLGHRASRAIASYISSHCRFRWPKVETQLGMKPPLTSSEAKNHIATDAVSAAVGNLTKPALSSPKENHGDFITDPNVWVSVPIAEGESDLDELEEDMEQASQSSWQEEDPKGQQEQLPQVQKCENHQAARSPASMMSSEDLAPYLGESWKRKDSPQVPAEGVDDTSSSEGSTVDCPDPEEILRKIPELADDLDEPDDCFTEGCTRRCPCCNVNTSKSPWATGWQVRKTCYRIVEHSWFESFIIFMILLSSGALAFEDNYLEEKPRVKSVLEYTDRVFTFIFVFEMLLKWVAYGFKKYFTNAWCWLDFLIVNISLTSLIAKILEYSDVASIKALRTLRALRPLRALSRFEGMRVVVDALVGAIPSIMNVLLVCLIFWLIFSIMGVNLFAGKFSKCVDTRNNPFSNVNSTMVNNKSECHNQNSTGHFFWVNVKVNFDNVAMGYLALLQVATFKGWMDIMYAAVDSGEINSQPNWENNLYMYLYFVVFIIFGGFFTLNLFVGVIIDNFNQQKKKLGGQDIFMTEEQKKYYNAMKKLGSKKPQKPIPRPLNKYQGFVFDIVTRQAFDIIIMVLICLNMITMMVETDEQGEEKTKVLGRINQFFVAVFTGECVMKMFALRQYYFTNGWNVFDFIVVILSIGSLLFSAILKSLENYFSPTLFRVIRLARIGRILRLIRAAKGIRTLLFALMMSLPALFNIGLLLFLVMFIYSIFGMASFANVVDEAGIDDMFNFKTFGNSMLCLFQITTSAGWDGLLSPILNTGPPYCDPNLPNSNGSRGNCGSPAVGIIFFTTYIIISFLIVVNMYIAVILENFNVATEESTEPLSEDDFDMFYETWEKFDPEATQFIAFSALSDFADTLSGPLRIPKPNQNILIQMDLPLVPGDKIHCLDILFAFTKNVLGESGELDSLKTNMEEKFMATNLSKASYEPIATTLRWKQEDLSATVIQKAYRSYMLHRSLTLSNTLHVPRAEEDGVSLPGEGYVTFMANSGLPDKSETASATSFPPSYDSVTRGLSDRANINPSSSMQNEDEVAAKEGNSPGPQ
# Sequence of hPN3 (Q9Y5Y9 whole entry, looked up): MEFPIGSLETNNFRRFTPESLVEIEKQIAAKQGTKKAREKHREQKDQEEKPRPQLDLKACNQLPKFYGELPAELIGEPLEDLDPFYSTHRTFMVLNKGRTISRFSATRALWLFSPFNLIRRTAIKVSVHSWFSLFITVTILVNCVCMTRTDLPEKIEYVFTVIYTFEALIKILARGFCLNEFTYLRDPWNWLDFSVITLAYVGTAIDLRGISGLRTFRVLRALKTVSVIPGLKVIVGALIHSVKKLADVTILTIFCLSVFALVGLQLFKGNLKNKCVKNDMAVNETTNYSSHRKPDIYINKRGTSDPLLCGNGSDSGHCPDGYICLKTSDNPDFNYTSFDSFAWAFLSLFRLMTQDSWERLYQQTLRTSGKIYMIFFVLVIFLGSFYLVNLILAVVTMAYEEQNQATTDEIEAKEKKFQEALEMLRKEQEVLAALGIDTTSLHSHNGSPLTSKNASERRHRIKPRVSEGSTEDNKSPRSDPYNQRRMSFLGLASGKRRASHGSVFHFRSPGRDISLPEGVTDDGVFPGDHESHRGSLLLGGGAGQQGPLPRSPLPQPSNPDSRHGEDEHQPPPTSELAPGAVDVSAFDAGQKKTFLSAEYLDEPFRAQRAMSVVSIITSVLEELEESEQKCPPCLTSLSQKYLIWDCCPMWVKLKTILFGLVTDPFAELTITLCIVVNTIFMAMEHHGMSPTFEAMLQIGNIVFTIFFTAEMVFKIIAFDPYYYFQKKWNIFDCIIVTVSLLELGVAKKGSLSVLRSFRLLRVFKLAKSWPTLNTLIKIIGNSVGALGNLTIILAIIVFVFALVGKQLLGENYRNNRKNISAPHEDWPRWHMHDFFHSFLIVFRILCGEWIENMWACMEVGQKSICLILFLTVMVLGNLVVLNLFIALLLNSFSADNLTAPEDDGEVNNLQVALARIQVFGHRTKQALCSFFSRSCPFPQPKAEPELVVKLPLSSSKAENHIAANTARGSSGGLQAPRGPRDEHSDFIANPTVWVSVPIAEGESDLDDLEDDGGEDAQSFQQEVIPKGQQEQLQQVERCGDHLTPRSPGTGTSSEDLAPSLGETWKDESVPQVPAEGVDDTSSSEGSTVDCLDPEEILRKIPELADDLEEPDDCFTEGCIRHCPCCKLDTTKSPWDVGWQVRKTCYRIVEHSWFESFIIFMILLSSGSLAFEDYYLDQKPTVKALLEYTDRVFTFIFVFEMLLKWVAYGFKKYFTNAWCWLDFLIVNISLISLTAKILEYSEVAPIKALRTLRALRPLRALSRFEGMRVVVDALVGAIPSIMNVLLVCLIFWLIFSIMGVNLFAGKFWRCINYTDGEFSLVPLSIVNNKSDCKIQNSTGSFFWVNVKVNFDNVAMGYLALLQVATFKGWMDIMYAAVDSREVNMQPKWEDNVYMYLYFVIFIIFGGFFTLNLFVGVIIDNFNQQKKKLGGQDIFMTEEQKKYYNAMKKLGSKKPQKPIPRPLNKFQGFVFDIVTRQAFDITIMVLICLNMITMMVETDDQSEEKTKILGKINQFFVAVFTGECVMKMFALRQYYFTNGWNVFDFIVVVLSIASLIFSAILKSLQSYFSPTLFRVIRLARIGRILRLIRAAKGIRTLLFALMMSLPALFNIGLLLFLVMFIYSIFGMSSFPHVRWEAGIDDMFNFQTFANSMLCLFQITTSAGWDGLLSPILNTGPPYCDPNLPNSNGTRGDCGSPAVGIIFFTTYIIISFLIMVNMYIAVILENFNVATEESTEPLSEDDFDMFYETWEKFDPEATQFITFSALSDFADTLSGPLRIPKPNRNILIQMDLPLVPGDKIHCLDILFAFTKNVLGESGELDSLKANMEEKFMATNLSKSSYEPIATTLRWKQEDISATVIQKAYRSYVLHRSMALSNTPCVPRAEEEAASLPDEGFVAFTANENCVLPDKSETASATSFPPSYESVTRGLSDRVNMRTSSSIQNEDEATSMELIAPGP
compound,measurement,setting,value
Cn1c(=O)c2c(ncn2C)n(C)c1=O [Caffeine],Number of autonomic mobility (X ± SD),[1],777 ± 178 •••
O=P1(N(CCCl)CCCl)NCCCO1 (stereo not shown) [cyclophosphamide],teratogenic rate,"[2]; female, Shanghai",100%
same,Number of Micronucleus cells,[3],279
"CN1CC[C@]23c4c5ccc(O)c4O[C@H]2[C@@H](O)C=C[C@H]3[C@H]1C5 [Morphine, morphine]","Percentage change in body weight, Overall Mean X ± SD",[4],−6.1
same,Score of body weight loss (Mean ± SD),[5],10.00 ± 2.60
same,Score of withdrawal symptoms (Mean ± SD),[5],7.38 ± 1.16
same,Score of Withdrawal Symptoms,[6]; Guangxi,61.0 ± 2.6
same,Body Weight Loss (%),[6],6.6 ± 1.7%
same,Jumping Frequency (X ± SD),[7],19.7 ± 16.3
same,Jumping Incidence (%),[7],90.0%
same,ID50 (95% CI),[8],2.74 mg/kg
same,ID50 (95% CI),[8]; sc,2.63 (2.32 ˜ 2.98) mg/kg
same,Latency time,[9],>20 min
CO[C@@]12[C@H](COC(N)=O)C3=C(C(=O)C(C)=C(N)C3=O)N1C[C@@H]1N[C@@H]12 [MMC],Chromosomal aberration rate (%),[10]; 24 hours,72%
same,Chromosomal aberration rate (%),[10]; 48 hours,99%
"10% bovine serum albumin: 10% bovine serum albumin solution, positive control in hypersensitivity test",animals with hypersensitive reaction (+),"[11]; (+) scratching nose, pilo-erection, uneasiness, sneezing, shortness of breath, mild cyanosis, animals/8",4/8
same,animals with hypersensitive reaction (++),"[11]; (++) pilo-erection, manifest dyspnea, cyanosis, weakness of limbs, animals/8",3/8
same,animals with hypersensitive reaction (+++),"[11]; (+++) Death, animals/8",1/8
same,animals with hypersensitive reaction (−),"[11]; guinea pig, in vivo",0/8
CN(C)c1ccc(N=NS(=O)(=O)[O-])cc1.[Na+] [Dexon],"Number of revertant Salmonella colonies, TA97",[12],1567 ± 315
same,"Number of revertant Salmonella colonies, TA102","[13]; Dexon 50.0, −S9, control 270 ± 45",858 ± 79
same,"Number of revertant Salmonella colonies, TA98",[14],604 ± 86
same,"Number of revertant Salmonella colonies, TA100",[15],562 ± 50
CCOC(=O)C1(c2ccccc2)CCN(C)CC1 [Meperidine],ID50 and 95% Confidence Interval,"[16]; mouse, in vivo, sc",1.8 mg/kg
CC(=O)Oc1ccccc1C(=O)O [Aspirin],Percentage of inhibition (%),"[16]; Aspirin 100 mg/kg, Table 4 (sc)",18.9%
same,Average Writhing Incidents,[16]; [29],22.1
same,Inhibition Rate %,[16]; [29],21.7%
same,Percentage of inhibition (%),"[16]; Aspirin 200 mg/kg, Table 4 (sc)",46.2%
same,Average Writhing Incidents,[16]; [30],14.3
same,Inhibition Rate %,[16]; [30],49.3%
same,Percentage of inhibition (%),"[16]; Aspirin 300 mg/kg, Table 4 (sc)",69.4%
same,Average Writhing Incidents,[16]; [31],7.2
same,Inhibition Rate %,[16]; [31],74.4%
same,Percentage of inhibition (%),"[16]; Aspirin 400 mg/kg, Table 4 (sc)",85.4%
same,Average Writhing Incidents,[16]; [32],2.7
same,Inhibition Rate %,[16]; [32],90.6%
same,ID50 and 95% Confidence Interval,"[16]; Aspirin, Table 4 (sc)",198.8 mg/kg
same,ID50 (95% Confidence Interval),"[16]; Aspirin, Table 5 (im)",183.8 mg/kg
same,duration of analgesic effect,[17]; aspirin 400 mg/kg po,about 2 hours
same,onset of therapeutic effect,[17]; aspirin 400 mg/kg po,20 min
same,time to peak effect after dosing,[17]; aspirin 400 mg/kg po,30 min
same,"IR, inhibition rate","[17]; Table 10, 10 min",38.4
same,"IR, inhibition rate","[17]; Table 10, 20 min",41.1
same,"AWI, average writhing incidence","[17]; Table 10, 30 min",1.98
same,"IR, inhibition rate","[17]; Table 10, 30 min",89.2
same,"AWI, average writhing incidence","[17]; Table 10, 40 min",4.8
same,"IR, inhibition rate","[17]; Table 10, 40 min",74.1
same,"AWI, average writhing incidence","[17]; Table 10, 70 min",6.3
same,"IR, inhibition rate","[17]; Table 10, 70 min",65.9
same,"IR, inhibition rate","[17]; Table 10, 100 min",37.1
same,"IR, inhibition rate","[17]; Table 10, 130 min",36.2
same,"AWI, average writhing incidence","[17]; Table 12 (NS 28.2 ± 14.3), 10 min after dosing",19.5
same,"IR, inhibition rate","[17]; Table 12, 10 min",30.8
same,"AWI, average writhing incidence","[17]; Table 12, 20 min",17.7
same,"IR, inhibition rate","[17]; Table 12, 20 min",37.2
same,"AWI, average writhing incidence","[17]; Table 12, 30 min",5.5
same,"IR, inhibition rate","[17]; Table 12, 30 min",80.6
same,"AWI, average writhing incidence","[17]; Table 12, 45 min",8.2
same,"IR, inhibition rate","[17]; Table 12, 45 min",70.9
same,"AWI, average writhing incidence","[17]; Table 12, 60 min",10.2
same,"IR, inhibition rate","[17]; Table 12, 60 min",63.8
same,"AWI, average writhing incidence","[17]; Table 12, 90 min",14.4
same,"IR, inhibition rate","[17]; Table 12, 90 min",49.0
same,"AWI, average writhing incidence","[17]; Table 12, 120 min",19.3
same,"IR, inhibition rate","[17]; Table 12, 120 min",31.6
same,"AWI, average writhing incidence","[17]; Table 12, 150 min",22.8
same,"IR, inhibition rate","[17]; Table 12, 150 min",19.3
CN1C(=O)CN=C(c2ccccc2)c2cc(Cl)ccc21 [Diazepam],Number of autonomic mobility (X ± SD),[1],323 ± 203 |||
same,Number of positively effected animals,[18],8 ***
same,Sleeping time (X ± SD),[19]; Kunming,146.2 ± 53. ||| min
"N=C1NC(O)C2C3OC4(O)OC(C(O)C2(N1)C4O)C3(O)CO (stereo not shown) [TTX, octahydro-12-(hydroxymethyl)-2-imino-5,9:7,10a-dimethano-10aH-(1,3)dioxocino(6,5-d)-pyrimidine-4,7,10,11,12-pentol]",in vitro haemolyzation,[20],did not induce in vitro haemolyzation
same,"Percentage change in body weight, Overall Mean X ± SD",[4],3.2
same,withdrawal symptom score (Mean ± SD),[4],0.0
same,Score of body weight loss (Mean ± SD),[5],0.00 ± 0.00
same,Score of withdrawal symptoms (Mean ± SD),[5]; sc,0.30 ± 0.90 and 0.20 ± 0.60
same,IC50,[21],~100 µM
same,Body Weight Loss (%),[6],0.4 ± 0.8 %
same,Score of Withdrawal Symptoms,[6],2.6 ± 4.6
same,toxic reaction on dose escalation,[6],significant toxic reaction (vomiting)
same,Jumping Frequency (X ± SD),[7],0.70 ± 2.70 and 1.30 ± 3.90
same,Jumping Incidence (%),[7]; sc,10.0*# %
same,"analgesic effect, times stronger than meperidine","[16]; mouse, in vivo",670 times
same,decrease of AChE activity,[22],41.2%
same,toxic symptoms,[22],evident toxic symptoms
same,IC50,[23],80 µM
same,Side Effect(s),[24],"Numbness; also recorded: Numbness,; also recorded: nausea, vomit"
same,addiction or withdrawal,[24],No signs of addiction or withdrawal
same,blood pressure decrease,[24],10-15 mm Hg
same,duration of analgesic effect / total pain relief,[24],20 to 30 days
same,duration of numbness or tingling,[24],at most 30 min
same,"onset of numbness or tingling in lips, tongue tip, fingers and toes",[24],10 to 20 min
same,pain at the conclusion of treatment,[24],entirely eliminated
same,pain intensity of all subjects,[24],reduced to 0 in all but one patient who recorded a 1
same,quality of life interference,[24],0
same,quality of life score,[24],6
same,"time to noticeable pain relief, some subjects",[24],5 min
same,"time to pain relief (various degrees), all subjects",[24],≤ 30 min
same,time to recovery of blood pressure,[24],40 to 50 min
same,time to take effect,[24],5 to 30 min
same,duration of analgesic effect,"[17]; mouse, in vivo, sc",about 5 hours
same,onset of therapeutic effect,"[17]; mouse, in vivo, sc",15 min
same,time to peak effect after dosing,"[17]; mouse, in vivo, sc",60 min
same,vascular stimulation,[25],did not produce any pronounced vascular stimulation
same,embryotoxicity or teratogenic action,[2],No embryotoxicity or teratogenic action
same,"analgesic effect, times stronger than morphine",[8],2900 times
same,"analgesic effect, times stronger than morphine",[8]; sc,3200 times
same,IC50,[26],0.001 to 0.02 µM
same,chromosomal aberration rates,[10],0˜2%
same,animals with hypersensitive reaction (+),"[11]; guinea pig, in vivo",0/8
same,animals with hypersensitive reaction (++),"[11]; guinea pig, in vivo",0/8
same,animals with hypersensitive reaction (−),"[11]; guinea pig, in vivo",8/8
same,micronucleus rate,[3],4.3 ‰
same,Sleeping time (X ± SD),[19]; ip,35.1 ± 26.2 ||| min and 36.3 ± 16.7 ||| min and 26.6 ± 22.5 ||| min
same,"effect on blood pressure, heart rate, electrocardiogram, respiratory rate and depth",[27],did not significantly affect
O=C1c2cccc(O)c2C(=O)c2c(O)cccc21 [DAN],"Number of revertant Salmonella colonies, TA102","[13]; DAN 100.0, +S9",906 ± 69
same,"Number of revertant Salmonella colonies, TA102","[13]; DAN 100.0, −S9",379 ± 99
"CC1(C)S[C@@H]2[C@H](NC(=O)Cc3ccccc3)C(=O)N2[C@H]1C(=O)[O-].[K+] [Penicillin G-K, penicillin G-K]","Grade for stimulation reaction, Left side, rabbit 1",[28]; [33],4
same,"Grade for stimulation reaction, Right side, rabbit 1",[28]; [33],4
same,"Grade for stimulation reaction, Right side, rabbit 2",[28]; [33],4
same,"Grade for stimulation reaction, Left side, rabbit 2","[28]; rabbit, in vivo",4
same,Sum of grades,"[28]; two rabbits, both sides",16
